Experimental data from patent publication US12042547B2, “Method for producing luminescent particles, luminescent particles, and bioimaging material” (KYULUX, INC., priority 2018, dated 2024).

Experiment: Evaluation of luminescence properties (emission maximum, PL quantum yield, emission lifetime)
Type: physicochemical
Details: toluene solution 1.0×10^−5 mol/L, 340-nm excitation
Method: The following examples illustrate the present invention in greater detail. It is to be understood that changes may be made to the below-described materials, processing manner, processing procedure, etc. without departing from the scope of the present invention. Thus, the present invention should not be construed as limited to the following examples. An evaluation of luminescence properties was performed by using an optical spectroscope (PMA-12, manufactured by Hamamatsu Photonics K.K.), and an observation of the shape of particles was performed by using a scanning electron microscope (Inspect S, manufactured by FEI). The average diameter and the polydispersion index of luminescent particles were determined by cumulant analysis using a dynamic light scattering measurement device (DLS-8000DL, manufactured by Otsuka Electronics Co., Ltd.).
The example particles 1, the example particles 2 and the comparative particles 1 were separately dispersed in water to prepare three aqueous dispersions (0.05 μg/L). For each of the aqueous dispersions and a toluene solution of 4CzIPN (1.0×10^−5 mol/L), the emission maximum wavelength, the PL quantum yield (photoluminescence quantum yield) and the emission lifetime τ1, τ2 were measured using 340-nm excitation light.
The resulting luminescent particles contained particles having a maximum diameter of less than 1000 nm. The resulting luminescent particles were dispersed in water to prepare an aqueous dispersion (0.05 μg/L). The aqueous dispersion was subjected to measurement of the emission spectrum with 340-nm excitation light. […] The full width at half maximum (FWHM) was as narrow as 29 nm.

Structure (SMILES): N#Cc1c(-n2c3ccccc3c3ccccc32)c(C#N)c(-n2c3ccccc3c3ccccc32)c(-n2c3ccccc3c3ccccc32)c1-n1c2ccccc2c2ccccc21 [4CzIPN]
- Emission lifetime τ1 (after nitrogen bubbling): 16 ns
- Emission lifetime τ2 (after nitrogen bubbling): 4.71 μs
- Emission maximum wavelength (after nitrogen bubbling): 505 nm
- PL quantum Yield (after nitrogen bubbling): 83%
- Emission lifetime τ1 (before nitrogen bubbling): 11 ns
- Emission lifetime τ2 (before nitrogen bubbling): 0.31 μs
- Emission maximum wavelength (before nitrogen bubbling): 505 nm
- PL quantum Yield (before nitrogen bubbling): 21%
